In the NIST ThermoML archive (doi:10.1016/j.jct.2012.06.010):
Numbers after ± are expanded uncertainties.

Assays:
[1] = Molar enthalpy of transition or fusion; conditions: DSC
[2] = molar heat capacity at constant pressure; conditions: 101.33 kPa, Small sample (50 mg) DSC
[3] = DTA

Structure (SMILES): O=C(O)c1cccnc1 [3-carboxylpyridine]
- Molar enthalpy of transition or fusion ([1]; Crystal 1): 28.2 ± 0.6 kJ/mol
- Molar enthalpy of transition or fusion ([1]; Crystal 2): 0.9 ± 0.22 kJ/mol
- molar heat capacity at constant pressure ([2]; 296.01 K, Crystal 2): 139.9 ± 12 J/K/mol
- molar heat capacity at constant pressure ([2]; 298.06 K, Crystal 2): 141.2 ± 11 J/K/mol
- molar heat capacity at constant pressure ([2]; 303.2 K, Crystal 2): 144.2 ± 10 J/K/mol
- molar heat capacity at constant pressure ([2]; 308.34 K, Crystal 2): 147 ± 9.4 J/K/mol
- molar heat capacity at constant pressure ([2]; 313.48 K, Crystal 2): 149.4 ± 9.4 J/K/mol
- molar heat capacity at constant pressure ([2]; 318.62 K, Crystal 2): 152.3 ± 4.5 J/K/mol
- molar heat capacity at constant pressure ([2]; 323.76 K, Crystal 2): 154.8 ± 8.7 J/K/mol
- molar heat capacity at constant pressure ([2]; 328.9 K, Crystal 2): 156.5 ± 9.7 J/K/mol
- molar heat capacity at constant pressure ([2]; 334.04 K, Crystal 2): 158.2 ± 11 J/K/mol
- molar heat capacity at constant pressure ([2]; 339.18 K, Crystal 2): 159.8 ± 12 J/K/mol
- molar heat capacity at constant pressure ([2]; 343.24 K, Crystal 2): 160.4 ± 12 J/K/mol
- molar heat capacity at constant pressure ([2]; 348.38 K, Crystal 2): 163.3 ± 12 J/K/mol
- molar heat capacity at constant pressure ([2]; 353.52 K, Crystal 2): 165.9 ± 6.8 J/K/mol
- molar heat capacity at constant pressure ([2]; 358.66 K, Crystal 2): 167.9 ± 6.6 J/K/mol
- molar heat capacity at constant pressure ([2]; 363.8 K, Crystal 2): 170 ± 6.7 J/K/mol
- molar heat capacity at constant pressure ([2]; 368.94 K, Crystal 2): 171.5 ± 6.7 J/K/mol
- molar heat capacity at constant pressure ([2]; 374.08 K, Crystal 2): 173.2 ± 8.8 J/K/mol
- molar heat capacity at constant pressure ([2]; 379.22 K, Crystal 2): 175.4 ± 8.4 J/K/mol
- molar heat capacity at constant pressure ([2]; 384.37 K, Crystal 2): 177.6 ± 8 J/K/mol
- molar heat capacity at constant pressure ([2]; 389.51 K, Crystal 2): 179.4 ± 7.6 J/K/mol
- molar heat capacity at constant pressure ([2]; 394.65 K, Crystal 2): 181.2 ± 12 J/K/mol
- molar heat capacity at constant pressure ([2]; 399.79 K, Crystal 2): 183.5 ± 13 J/K/mol
- molar heat capacity at constant pressure ([2]; 404.93 K, Crystal 2): 185.8 ± 13 J/K/mol
- molar heat capacity at constant pressure ([2]; 410.07 K, Crystal 2): 189.4 ± 9.8 J/K/mol
- molar heat capacity at constant pressure ([2]; 415.21 K, Crystal 2): 194.3 ± 8.3 J/K/mol
- molar heat capacity at constant pressure ([2]; 420.35 K, Crystal 2): 198 ± 8.3 J/K/mol
- molar heat capacity at constant pressure ([2]; 425.49 K, Crystal 2): 201.7 ± 8.3 J/K/mol
- molar heat capacity at constant pressure ([2]; 430.63 K, Crystal 2): 205.3 ± 7.4 J/K/mol
- molar heat capacity at constant pressure ([2]; 435.77 K, Crystal 2): 212.1 ± 15 J/K/mol
- molar heat capacity at constant pressure ([2]; 440.91 K, Crystal 2): 219.1 ± 13 J/K/mol
- molar heat capacity at constant pressure ([2]; 448.1 K, Crystal 2): 231.3 ± 18 J/K/mol
- molar heat capacity at constant pressure ([2]; 449.13 K, Crystal 2): 240.6 ± 13 J/K/mol
- molar heat capacity at constant pressure ([2]; 450.16 K, Crystal 2): 254.7 ± 12 J/K/mol
- molar heat capacity at constant pressure ([2]; 451.19 K, Crystal 2): 273.6 ± 17 J/K/mol
- molar heat capacity at constant pressure ([2]; 452.22 K, Crystal 2): 292.5 ± 26 J/K/mol
- molar heat capacity at constant pressure ([2]; 453.24 K, Crystal 2): 334.7 ± 38 J/K/mol
- molar heat capacity at constant pressure ([2]; 454.27 K, Crystal 2): 418.6 ± 38 J/K/mol
- molar heat capacity at constant pressure ([2]; 455.3 K, Crystal 2): 440.3 ± 14 J/K/mol
- molar heat capacity at constant pressure ([2]; 456.33 K, Crystal 1): 382.6 ± 41 J/K/mol
- molar heat capacity at constant pressure ([2]; 457.36 K, Crystal 1): 326.3 ± 33 J/K/mol
- molar heat capacity at constant pressure ([2]; 458.38 K, Crystal 1): 297.2 ± 28 J/K/mol
- molar heat capacity at constant pressure ([2]; 459.41 K, Crystal 1): 280.2 ± 22 J/K/mol
- molar heat capacity at constant pressure ([2]; 460.44 K, Crystal 1): 263.1 ± 16 J/K/mol
- molar heat capacity at constant pressure ([2]; 461.47 K, Crystal 1): 251.7 ± 14 J/K/mol
- molar heat capacity at constant pressure ([2]; 462.5 K, Crystal 1): 245.7 ± 15 J/K/mol
- molar heat capacity at constant pressure ([2]; 463.52 K, Crystal 1): 239.8 ± 16 J/K/mol
- molar heat capacity at constant pressure ([2]; 464.55 K, Crystal 1): 235.7 ± 17 J/K/mol
- molar heat capacity at constant pressure ([2]; 465.58 K, Crystal 1): 233.6 ± 18 J/K/mol
- molar heat capacity at constant pressure ([2]; 466.61 K, Crystal 1): 231.4 ± 18 J/K/mol
- molar heat capacity at constant pressure ([2]; 467.64 K, Crystal 1): 229.5 ± 16 J/K/mol
- molar heat capacity at constant pressure ([2]; 468.66 K, Crystal 1): 227.8 ± 11 J/K/mol
- molar heat capacity at constant pressure ([2]; 469.69 K, Crystal 1): 226.1 ± 7.9 J/K/mol
- molar heat capacity at constant pressure ([2]; 479.97 K, Crystal 1): 231.6 ± 12 J/K/mol
- molar heat capacity at constant pressure ([2]; 482.03 K, Crystal 1): 232.2 ± 11 J/K/mol
- molar heat capacity at constant pressure ([2]; 487.17 K, Crystal 1): 233.6 ± 8.1 J/K/mol
- molar heat capacity at constant pressure ([2]; 492.31 K, Crystal 1): 235.1 ± 8.7 J/K/mol
- molar heat capacity at constant pressure ([2]; 497.45 K, Crystal 1): 237.2 ± 9.6 J/K/mol
- molar heat capacity at constant pressure ([2]; 500.53 K, Crystal 1): 245.9 ± 14 J/K/mol
- molar heat capacity at constant pressure ([2]; 503.62 K, Crystal 1): 254.7 ± 20 J/K/mol
- molar heat capacity at constant pressure ([2]; 504.65 K, Crystal 1): 280.5 ± 51 J/K/mol
- molar heat capacity at constant pressure ([2]; 505.67 K, Crystal 1): 306.3 ± 83 J/K/mol
- molar heat capacity at constant pressure ([2]; 506.7 K, Crystal 1): 422.7 ± 250 J/K/mol
- molar heat capacity at constant pressure ([2]; 507.73 K, Crystal 1): 1073.5 ± 1600 J/K/mol
- molar heat capacity at constant pressure ([2]; 508.76 K, Crystal 1): 7052.2 ± 11000 J/K/mol
- molar heat capacity at constant pressure ([2]; 510.81 K, Liquid): 1773.6 J/K/mol
- molar heat capacity at constant pressure ([2]; 511.84 K, Liquid): 309.8 ± 33 J/K/mol
- molar heat capacity at constant pressure ([2]; 512.87 K, Liquid): 307.2 ± 22 J/K/mol
- molar heat capacity at constant pressure ([2]; 515.95 K, Liquid): 307.4 ± 8.2 J/K/mol
- molar heat capacity at constant pressure ([2]; 518.01 K, Liquid): 308.6 ± 8.1 J/K/mol
- molar heat capacity at constant pressure ([2]; 523.15 K, Liquid): 311.5 ± 8.4 J/K/mol
- molar heat capacity at constant pressure ([2]; 528.29 K, Liquid): 314.4 ± 9.5 J/K/mol
- molar heat capacity at constant pressure ([2]; 531.37 K, Liquid): 316.2 ± 11 J/K/mol
- Triple point temperature ([3]; Crystal 1): 509.91 ± 0.39 K
- Triple point temperature ([3]; Crystal 2): 455 ± 0.5 K
